One test deals with T1, Human LOXL2 (Homo sapiens, UniProt Q9Y4K0).
T1 sequence (Q9Y4K0 26-774): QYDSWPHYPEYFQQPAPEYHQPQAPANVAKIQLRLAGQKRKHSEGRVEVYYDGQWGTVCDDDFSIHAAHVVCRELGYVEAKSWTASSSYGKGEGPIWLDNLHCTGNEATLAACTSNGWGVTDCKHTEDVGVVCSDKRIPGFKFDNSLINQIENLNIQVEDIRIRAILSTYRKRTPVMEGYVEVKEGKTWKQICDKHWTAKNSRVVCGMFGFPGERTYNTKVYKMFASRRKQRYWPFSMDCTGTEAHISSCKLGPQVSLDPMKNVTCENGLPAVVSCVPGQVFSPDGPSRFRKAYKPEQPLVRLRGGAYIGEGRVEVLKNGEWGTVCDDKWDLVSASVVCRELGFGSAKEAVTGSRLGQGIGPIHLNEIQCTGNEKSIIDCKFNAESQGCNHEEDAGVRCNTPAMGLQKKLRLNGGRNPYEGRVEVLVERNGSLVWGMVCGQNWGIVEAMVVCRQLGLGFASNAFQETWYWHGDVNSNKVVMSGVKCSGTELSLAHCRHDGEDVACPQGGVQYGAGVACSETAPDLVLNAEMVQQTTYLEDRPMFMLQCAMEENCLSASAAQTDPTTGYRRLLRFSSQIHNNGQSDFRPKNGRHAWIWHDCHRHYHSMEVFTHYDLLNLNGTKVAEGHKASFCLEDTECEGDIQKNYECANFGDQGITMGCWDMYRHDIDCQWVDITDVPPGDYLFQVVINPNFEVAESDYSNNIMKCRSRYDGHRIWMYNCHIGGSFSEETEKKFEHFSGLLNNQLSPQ
Nature of the test: LOXL2 amine oxidase inhibition, peroxidase-coupled Amplex Red assay. The test is classed as biochemical. Particulars: 30 min preincubation at 37° C., putrescine substrate. From the text:
(§1) Method to Determine the Ability of Compounds of the Invention to Inhibit LOX and LOXL1-4 from Different Sources
(§2) Lysyl oxidase (LOX) is an extracellular copper dependent enzyme which oxidizes peptidyl lysine and hydroxylysine residues in collagen and lysine residues in elastin to produce peptidyl alpha-aminoadipic-delta-semialdehydes. […] There are five LOX family members; these are LOX, LOXL1, LOXL2, LOXL3 and LOXL4. LOX and LOXL family members can be acquired as recombinant active proteins from commercial sources, or extracted from animal tissues like bovine aorta, tendons, pig skin; or prepared from cell cultures. The inhibitory effects of the compounds of the present invention were tested against the given LOX-LOXL preparation using a high-throughput coupled colorimetric method (Holt A. and Palcic M., A peroxidase-coupled continuous absorbance plate-reader assay for flavin monoamine oxidases, copper-containing amine oxidases and related enzymes. Nat. Protoc. 2006; 1: 2498-2505). The assay was developed using either 384 or 96 well format. Briefly, in a standard 384 well plate assay 25 μL of a dilution of any of the isoenzymes and orthologues in 1.2 M urea, 50 mM sodium borate buffer (pH 8.2) were added into each well in the presence of 1 μM mofegiline and 0.5 mM pargyline (to inhibit SSAO and MAO-B and MAO-A, respectively). Test compounds were dissolved in DMSO and tested in a Concentration Response Curve (CRC) with 11 data points, typically in the micromolar or nanomolar range after incubation with the enzyme for 30 min at 37° C. Twenty five μL of a reaction mixture containing twice the KM concentration of putrescine (Sigma Aldrich, e.g. 20 mM for LOX, or 10 mM for LOXL2 and LOXL3), 120 μM Amplex Red (Sigma Aldrich) and 1.5 U/mL horseradish peroxidase (Sigma Aldrich) prepared in 1.2 M urea, 50 mM sodium borate buffer (pH 8.2) were then added to the corresponding wells. The above volumes were doubled in the case of 96 wells plate. The fluorescence (RFU) was read every 2.5 min for 30 min at a range of temperatures from 37° to 45° C., excitation 565 nm and emission 590 (Optima; BMG labtech). The slope of the kinetics for each well was calculated using MARS data analysis software (BMG labtech) and this value was used to deduce the IC50 value (Dotmatics).

A further test has as its target T2, Bovine LOX (Bos taurus, UniProt P33072).
T2 sequence (P33072 170-418): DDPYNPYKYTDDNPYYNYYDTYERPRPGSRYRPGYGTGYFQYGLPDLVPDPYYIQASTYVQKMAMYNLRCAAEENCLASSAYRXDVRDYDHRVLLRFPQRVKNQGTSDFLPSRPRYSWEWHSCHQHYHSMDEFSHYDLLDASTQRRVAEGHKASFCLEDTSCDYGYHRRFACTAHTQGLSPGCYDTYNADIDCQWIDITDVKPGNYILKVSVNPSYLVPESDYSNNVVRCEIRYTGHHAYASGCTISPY
Nature of the test: LOX amine oxidase inhibition, peroxidase-coupled Amplex Red assay. It is filed as biochemical. To be noted: 30 min preincubation at 37° C., putrescine substrate.
Description: as §1
as §2, with “Test compounds were dissolved in DMSO and tested in a Concentration Response Curve (CRC) with 11 data points, typically in the micromolar or nanomolar range after incubation with the enzyme for 30 min at 37° C.” left out

Counter-ions that a name gives are not always drawn.

Regarding `Cc1c(Cc2ccc(S(=O)(=O)N(C)C)cc2)c(C(C)(C)C)nn1C/C(F)=C/CN` [Compound 50, (Z)-4-((1-(4-amino-2-fluorobut-2-en-1-yl)-3-(tert-butyl)-5-methyl-1H-pyrazol-4-yl)methyl)-N,N-dimethylbenzenesulfonamide hydrochloride], the IC50 against Human LOXL2 was less than 1 µM; against Bovine LOX, less than 10 µM.

For `Cc1nn(C/C(F)=C/CN)c(C)c1Cc1ccc(S(N)(=O)=O)c(Cl)c1` [Compound 51, (Z)-4-((1-(4-amino-2-fluorobut-2-en-1-yl)-3,5-dimethyl-1H-pyrazol-4-yl)methyl)-2-chlorobenzenesulfonamide hydrochloride], the results for the half-maximal inhibitory concentration (IC50) at Human LOXL2 and at Bovine LOX were less than 1 µM and less than 10 µM, respectively.

With `Cc1nn(C/C(F)=C/CN)c(C(C)(C)O)c1Cc1ccc(S(=O)(=O)N(C)C)c(Cl)c1` [Compound 54, (Z)-4-((1-(4-amino-2-fluorobut-2-en-1-yl)-5-(2-hydroxypropan-2-yl)-3-methyl-1H-pyrazol-4-yl)methyl)-2-chloro-N,N-dimethylbenzenesulfonamide hydrochloride], the 50% inhibitory concentration (IC50) was more than 1 µM against Human LOXL2 and more than 10 µM against Bovine LOX.

Turning to `Cc1nn(C/C(F)=C/CN)c(CO)c1Cc1ccc(S(=O)(=O)N(C)C)cc1Cl` [Compound 55, (Z)-4-((1-(4-amino-2-fluorobut-2-en-1-yl)-5-(hydroxymethyl)-3-methyl-1H-pyrazol-4-yl)methyl)-3-chloro-N,N-dimethylbenzenesulfonamide hydrochloride], the figures for the 50% inhibitory concentration (IC50) at Human LOXL2 and at Bovine LOX were less than 1 µM and less than 10 µM, respectively.

For the compound `Cc1nn(C/C(F)=C/CN)c(C(F)(F)F)c1Cc1ccc(S(=O)(=O)N(C)C)c(Cl)c1` [Compound 56, (Z)-4-((1-(4-amino-2-fluorobut-2-en-1-yl)-3-methyl-5-(trifluoromethyl)-1H-pyrazol-4-yl)methyl)-2-chloro-N,N-dimethylbenzenesulfonamide hydrochloride], the half-inhibitory concentration (IC50) is less than 1 µM against Human LOXL2 and less than 10 µM on Bovine LOX.

Turning to `Cc1c(Cc2ccc(S(=O)(=O)N(C)C)c(Cl)c2)c(C(F)(F)F)nn1C/C(F)=C/CN` [Compound 57, (Z)-4-((1-(4-amino-2-fluorobut-2-en-1-yl)-5-methyl-3-(trifluoromethyl)-1H-pyrazol-4-yl)methyl)-2-chloro-N,N-dimethylbenzenesulfonamide hydrochloride], the IC50 on Human LOXL2 is less than 1 µM; on Bovine LOX it was less than 10 µM.

On to `CC(C)c1nn(C/C(F)=C/CN)c(C(C)O)c1Cc1ccc(S(=O)(=O)N(C)C)cc1Cl` (stereo not drawn) [Compound 58, (Z)-4-((1-(4-amino-2-fluorobut-2-en-1-yl)-5-(1-hydroxyethyl)-3-isopropyl-1H-pyrazol-4-yl)methyl)-3-chloro-N,N-dimethylbenzenesulfonamide hydrochloride], for which the half-maximal inhibitory concentration (IC50) against Human LOXL2 was less than 1 µM; on Bovine LOX, more than 10 µM.

As for `Cc1nn(Cc2ccc(S(=O)(=O)N(C)C)c(Cl)c2)c(C(C)O)c1C/C(F)=C/CN` (stereo not drawn) [Compound 63, (Z)-4-((4-(4-amino-2-fluorobut-2-en-1-yl)-5-(l-hydroxyethyl)-3-methyl-1H-pyrazol-1-yl)methyl)-2-chloro-N,N-dimethylbenzenesulfonamide hydrochloride], the concentration for half-maximal inhibition (IC50) against Human LOXL2 was less than 1 µM; against Bovine LOX, less than 10 µM.

As to `CC(C)c1nn(Cc2ccc(S(=O)(=O)N(C)C)c(Cl)c2)c(C(C)C)c1C/C(F)=C/CN` [Compound 64, (Z)-4-((4-(4-amino-2-fluorobut-2-en-1-yl)-3,5-diisopropyl-1H-pyrazol-1-yl)methyl)-2-chloro-N,N-dimethylbenzenesulfonamide hydrochloride], the IC50 is less than 1 µM at Human LOXL2 and less than 10 µM against Bovine LOX.

For the compound `Cc1nn(C/C(F)=C/CN)c(C(C)C)c1Cc1ccc(S(=O)(=O)N(C)C)c(Cl)c1` [Compound 65, (Z)-4-((1-(4-amino-2-fluorobut-2-en-1-yl)-5-isopropyl-3-methyl-1H-pyrazol-4-yl)methyl)-2-chloro-N,N-dimethylbenzenesulfonamide hydrochloride], the IC50 against Human LOXL2 is less than 1 µM; on Bovine LOX, less than 10 µM.

As for `Cc1c(Cc2ccc(S(=O)(=O)N(C)C)c(Cl)c2)c(C(C)C)nn1C/C(F)=C/CN` [Compound 66, (Z)-4-((1-(4-amino-2-fluorobut-2-en-1-yl)-3-isopropyl-5-methyl-1H-pyrazol-4-yl)methyl)-2-chloro-N,N-dimethylbenzenesulfonamide hydrochloride], the results for the IC50 on Human LOXL2 and at Bovine LOX were less than 1 µM and less than 10 µM, respectively.

Turning to `CS(=O)(=O)c1cccc(-c2cnn(C/C(F)=C/CN)c2)c1` [Compound 67, (Z)-3-fluoro-4-(4-(3-(methylsulfonyl)phenyl)-1H-pyrazol-1-yl)but-2-en-1-amine hydrochloride], the half-maximal inhibitory concentration (IC50) was less than 1 µM against Human LOXL2 and less than 10 µM on Bovine LOX.

What is called IC50 is the concentration at which inhibition is half-maximal. High values mean lower potency, low ones higher potency.
